We go through 12 compounds from ChEMBL document CHEMBL1131475, “Discovery of ritonavir, a potent inhibitor of HIV protease with high oral bioavailability and clinical efficacy” (J Med Chem, 1998).

Series [1] is described as follows: in vivo. As to conditions: rat, plasma, po.
Series [2] can be described thus: in vivo. The note with it: rat, plasma, po. The source holds these as a separate data set.
Series [3] in a line: Oral bioavailability in rat. Type of series: ADME, organism-based. As to conditions: in vivo.
A short description of series [4]: in vivo. As to conditions: rat, plasma, po, 10 mg/kg.
Series [5] is described as follows: in vivo. As to conditions: rat, plasma, iv.

As for `CC(C)c1cccc(COC(=O)NC(C(=O)N[C@@H](Cc2ccccc2)C[C@H](O)[C@H](Cc2ccccc2)NC(=O)OCc2cccnc2)C(C)C)n1` (stereo not given in full), in series [1], the area under the curve (AUC) (as a rule, the area under the concentration-time curve, a measure of exposure) is 140 ng·h/mL. For the same compound, the Tmax (in general, the time from dosing to the highest level) in series [2] was 15 min. For the same compound, in series [3], the bioavailability (in general, dose-corrected exposure relative to a reference, in per cent) was determined as 5.6%. In series [4], the peak level (Cmax) was 200 nM. In series [5], the half-life – broadly, the time needed for the level to fall by half in the phase considered – was 34.2 min.

In series [1], `Cc1ncc(COC(=O)N[C@@H](Cc2ccccc2)[C@@H](O)C[C@H](Cc2ccccc2)NC(=O)C(NC(=O)N(C)Cc2csc(C(C)C)n2)C(C)C)s1` (stereo not given in full) gave an area under the curve (AUC) of 910 ng·h/mL. Besides, the Tmax in series [2] came to 72 min. The bioavailability in series [3] came out at 23%. Further, the peak level in series [4] (Cmax) was 650 nM. Also, the half-life in series [5] is 26.4 min.

`CC(C)c1nc(CN(C)C(=O)NC(C(=O)N[C@@H](Cc2ccccc2)C[C@H](O)[C@H](Cc2ccccc2)NC(=O)OCc2ccno2)C(C)C)co1` (stereo not given in full) yielded an AUC in series [1] of 180 ng·h/mL. Besides, the time to peak (Tmax) in series [2] was determined as 6 min. This compound also returned a bioavailability in series [3] of 3.8%. Also, the concentration in series [4] peaked (Cmax) at 490 nM. Moreover, in series [5], the half-life is 24 min.

`CC(C)C(NC(=O)OCc1cnccn1)C(=O)N[C@@H](Cc1ccccc1)C[C@H](O)[C@H](Cc1ccccc1)NC(=O)OCc1cccnc1` (stereo not given in full) showed an AUC in series [1] of 100 ng·h/mL. Further, the time to peak (Tmax) in series [2] stood at 12 min. The bioavailability in series [3] came out at 2.4%. Further, the Cmax (as a rule, the highest concentration seen after dosing) in series [4] came out at 500 nM. This compound had a half-life in series [5] of 12 min.

Compound `CC(C)C(NC(=O)OCc1cncc(N)c1)C(=O)N[C@@H](Cc1ccccc1)[C@@H](O)C[C@H](Cc1ccccc1)NC(=O)OCc1cccnc1` (stereo not given in full) returned an area under the curve (AUC) in series [1] of 20 ng·h/mL. The Tmax in series [2] came out at 6 min. Further, in series [3], the bioavailability turned out to be 0.5%. The compound further came in with a Cmax in series [4] of 200 nM. The half-life in series [5] is 43.2 min.

`COc1ccc(CN(C)C(=O)NC(C(=O)N[C@@H](Cc2ccccc2)[C@@H](O)C[C@H](Cc2ccccc2)NC(=O)OCc2cccnc2)C(C)C)nc1` (stereo not given in full) had an AUC in series [1] of 820 ng·h/mL. Besides, the Tmax in series [2] was determined as 9 min. In series [3], the bioavailability came out at 17%. The Cmax in series [4] turned out to be 2170 nM. In series [5], this compound showed a half-life of 36 min.

In series [1], `CC(C)C(NC(=O)OCc1ccccn1)C(=O)N[C@@H](Cc1ccccc1)[C@@H](O)C[C@H](Cc1ccccc1)NC(=O)OCc1cccnc1` (stereo not given in full) showed an AUC of 1980 ng·h/mL. In addition, in series [2], the time to peak (Tmax) amounted to 15 min. In series [3], this compound displayed a bioavailability of 26%. The same compound registered a maximum concentration (Cmax) in series [4] of 4110 nM. The compound also gave a half-life in series [5] of 114 min.

Consider `CC(C)c1nc(CN(C)C(=O)NC(C(=O)N[C@@H](Cc2ccccc2)C[C@H](O)[C@H](Cc2ccccc2)NC(=O)OCc2ccno2)C(C)C)cs1` (stereo not given in full), for which the AUC in series [1] was determined as 270 ng·h/mL. Further, the Tmax in series [2] came out at 12 min. Moreover, in series [3], the bioavailability worked out at 7.7%. Besides, the highest concentration (Cmax) in series [4] amounted to 370 nM. Also, the half-life in series [5] was 35.4 min.

`CC(C)c1nc(CN(C)C(=O)NCCC(=O)N[C@@H](Cc2ccccc2)C[C@H](O)[C@H](Cc2ccccc2)NC(=O)OCc2cncs2)cs1` had an exposure (AUC) in series [1] of 190 ng·h/mL. Also, the Tmax in series [2] was 6 min. Also, in series [3], the bioavailability is 7.1%. In series [4], this compound gave a peak concentration (Cmax) of 630 nM. Besides, the half-life in series [5] is 57.6 min.

`Cc1ncc(COC(=O)NC(C(=O)N[C@@H](Cc2ccccc2)C[C@H](O)[C@H](Cc2ccccc2)NC(=O)OCc2cccnc2)C(C)C)nc1C` (stereo not given in full) came in with an area under the curve (AUC) in series [1] of 480 ng·h/mL. Moreover, in series [2], the Tmax worked out at 6 min. Moreover, in series [3], the bioavailability was 10%. The compound further came in with a Cmax in series [4] of 2060 nM. Moreover, the half-life in series [5] was 25.8 min.

In series [1], `CCc1nc(COC(=O)NC(C(=O)N[C@@H](Cc2ccccc2)[C@@H](O)C[C@H](Cc2ccccc2)NC(=O)OCc2cccnc2)C(C)C)cs1` (stereo not given in full) returned an AUC of 420 ng·h/mL. Further, the Tmax in series [2] stood at 6 min. The bioavailability in series [3] came to 9.5%. Further, in series [4], the highest level (Cmax) was 990 nM. Also, the half-life in series [5] was 29.4 min.

On to `CC(C)c1nc(CN(C)C(=O)NC(C(=O)N[C@@H](Cc2ccccc2)C[C@H](O)[C@H](Cc2ccccc2)NC(=O)OCc2cccnc2)C(C)C)cs1` (stereo not given in full), for which the AUC in series [1] was 530 ng·h/mL. Also, in series [2], the time to peak (Tmax) is 19.8 min. In series [3], this compound had a bioavailability of 12%. Besides, the peak level in series [4] (Cmax) was 980 nM. In addition, the half-life in series [5] was 61.8 min.
